Laboratory results taken from patent US10712352B2, “Methods and devices for assessing in vivo toxic levels of bilirubin and diagnosing increased risk of bilirubin neurotoxicity” (NEOMETRIX DX, priority 2018, dated 2020).

Assays:
human albumin = human albumin (Homo sapiens, UniProt P02768); assay: Bilirubin binding before and after adding sulfisoxazole to a bilirubin/human albumin sample
Description: The clinically relevant quantification of bilirubin binding are the mass action variables above (BTotal, BFree, BTotal_2, BFree_2, BTmax, and KA) constitute a Bilirubin Binding Panel (BBP). Optionally, BTmax and KA can be used to determine whether a newborn binds bilirubin normally.
Measuring Total and Unbound Bilirubin (BTotal and BFree): The peroxidase test (see, e.g., Jacobsen J, Wennberg R P. Determination of unbound bilirubin in the serum of newborns. Clin Chem 1974; 20:783-789) measures both BTotal and BFree. This test is used clinically in Japan. In alternative embodiments, novel modifications of methods as provided herein measure BFree at two horseradish peroxidase levels to accurately determine BFree and measure BTotal and BFree before and after bilirubin enrichment of a plasma or other blood sample to provide BTmax and KA to complete the Bilirubin Binding Panel (BBP) described herein. […] The peroxidase test is based on the horse radish peroxidase (HRP) catalyzed oxidation of bilirubin by peroxide. Bilirubin absorbs light maximally at 440 nm when no albumin is present and at 460 nm when bound to albumin. Bilirubin bound to albumin is protected from oxidation and only BFree is oxidized. The light absorbance at 440 nm (no albumin) or 460 nm (albumin present) decreases as bilirubin is oxidized, and the reaction rate constant, Kp, can be determined using known bilirubin and HRP concentrations in solutions without albumin present (i.e. all the bilirubin is unbound or “free”) as shown in the equivalent velocity equations below: […]
BTotal is calculated from the absorbance prior to adding HRP and H2O2 and BFree from the change in absorbance following addition of HRP/H2O2 as further described below. […]
BTotal is calculated by dividing the initial absorbance by the known extinction coefficient (0.827/cm light path length for BTotal in […]) and BFree is calculated from the change in absorbance at 460 nm after adding HRP/H2O2. […]

[1] = system: plasma bilirubin binding sites (e.g. albumin); assay: Bilirubin binding panel (peroxidase test, before and after bilirubin enrichment) in plasma of 31 newborns <28 weeks gestation; parameters: species or system human
Description: [formula] can be readily solved by for BTmax and KA by measuring BTotal and BFree before and after enrichment of the sample with bilirubin to provide BTotal, BFree, and BTotal_2, BFree_2. These provide two equations with two unknowns (BTmax and KA), that can be solved for BTmax as shown below:
(§1) This test is used clinically in Japan.
(§2) BFree is obtained by measuring BFss at the additional HRP concentration and using […]

human defatted albumin = human defatted albumin (Homo sapiens, UniProt P02768); assay: Bilirubin binding isotherm in artificial serum containing human defatted albumin (peroxidase test); conditions: albumin 3.0 g/dL
Experimental: FIG. 5 illustrates the change in BFree (black dots) as BTotal increases. The negative intercept of 1/BFree versus 1/BTotal, i.e. KA, is […] and the negative slope/intercept, i.e. BTmax, is 37.5 mg/dL. The BTmax and KA in Table 3 are calculated as described above using the lowest BTotal (8.3 mg/dL) and BFree (0.51 μg/dL) paired with each of the other five measures of BTotal and BFree. The mean BTmax and KA of all 15 possible pairings in TABLE 4 are 39.1 mg/dL and 0.56 dL/μg, respectively.
Non-linear regression analysis of the molar ratios versus the BFree from TABLE 3 were used to determine the best fit K1 (0.93 dL/μg) and K2 (0.04 dL/μg) using the stoichiometric equation
as §1, §2

Chain of human albumin (P02768 25-609): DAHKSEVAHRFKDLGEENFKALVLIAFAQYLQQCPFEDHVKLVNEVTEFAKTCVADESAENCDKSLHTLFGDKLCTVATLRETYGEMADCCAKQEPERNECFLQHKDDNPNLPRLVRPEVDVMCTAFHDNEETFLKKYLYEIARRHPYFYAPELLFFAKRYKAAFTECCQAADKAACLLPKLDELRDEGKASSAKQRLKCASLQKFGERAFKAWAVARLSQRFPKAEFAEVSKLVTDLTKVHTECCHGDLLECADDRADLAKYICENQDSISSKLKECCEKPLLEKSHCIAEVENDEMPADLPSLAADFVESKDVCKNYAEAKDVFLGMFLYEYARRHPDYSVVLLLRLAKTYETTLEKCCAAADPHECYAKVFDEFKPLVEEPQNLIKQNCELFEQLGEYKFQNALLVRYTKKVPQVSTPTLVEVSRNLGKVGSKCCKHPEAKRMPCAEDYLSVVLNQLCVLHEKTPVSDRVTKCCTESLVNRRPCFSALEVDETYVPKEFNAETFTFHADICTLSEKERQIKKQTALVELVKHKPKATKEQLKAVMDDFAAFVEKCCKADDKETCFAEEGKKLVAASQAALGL
Chain of human defatted albumin (P02768 25-609): as above

Structure (SMILES) | KA (human albumin; 3.0 g/dL albumin, without or with sulfa) [dL/µg] | effect of adding sulfisoxazole on bilirubin BFree (human albumin; bilirubin/human albumin sample, 3.0 g/dL albumin) | BFree_2 (free bilirubin after bilirubin enrichment) ([1]; 25th-75th percentile, after enrichment) [µg/dL] | BFree_2 (free bilirubin after bilirubin enrichment) ([1]; mean, after enrichment (mean BTotal_2 13.8 mg/dL)) [µg/dL] | BFree_2 (free bilirubin after bilirubin enrichment) ([1]; median, after enrichment (median BTotal_2 13.7 mg/dL)) [µg/dL] | BFree_2 (free bilirubin after bilirubin enrichment) ([1]; range, after enrichment (BTotal_2 6.3-23.0 mg/dL)) [µg/dL] | BFree (human defatted albumin; BTotal 8.3 mg/dL (BTotal/ATotal molar ratio 0.31)) [µg/dL] | BFree (human defatted albumin; BTotal 11.7 mg/dL (molar ratio 0.44)) [µg/dL] | BFree (human defatted albumin; BTotal 18.5 mg/dL (molar ratio 0.69)) [µg/dL] | BFree (human defatted albumin; BTotal 22.2 mg/dL (molar ratio 0.83)) [µg/dL] | BFree (human defatted albumin; BTotal 28.3 mg/dL (molar ratio 1.06)) [µg/dL] | BFree (human defatted albumin; BTotal 31.3 mg/dL (molar ratio 1.18)) [µg/dL] | BFree (human albumin; human, 8.3 mg/dL, pH 7.4) [µg/dL]
Cc1noc(NS(=O)(=O)c2ccc(N)cc2)c1C [+ sulfa, sulfisoxazole] | 0.20 | about doubles the BFree |  |  |  |  |  |  |  |  |  |  | 
C=CC1=C(C)/C(=C/c2[nH]c(Cc3[nH]c(/C=C4\NC(=O)C(C)=C4C=C)c(C)c3CCC(=O)O)c(CCC(=O)O)c2C)NC1=O [bilirubin] |  |  | 1.1 to 3.3 | 2.51 | 1.93 | 0.42 to 10.61 | 0.51 | 0.92 | 1.70 | 2.39 | 6.05 | 9.88 | 0.51
